# From patent US10675286B2, “Heterocyclic compounds and uses thereof” (Infinity Pharmaceuticals, Inc., priority 2014, dated 2020)
# How the values were obtained:
# [1] = Stability in simulated gastric fluid; type: physicochemical; conditions: 38° simulated gastric fluid
# Text: The phyiscochemical properties of Compound BB are drug-like, and suitable for use of the compound as a drug.
# [2] = Pharmacokinetics in rodent and non-rodent animal species (ADME characteristics, Table 25)
# Text: These properties indicate the compound's suitability for in vivo administration.
# [3] = Target organ toxicity (TOT) study in rats, 10 days oral; type: in vivo
# Description: A target organ toxicity (TOT) study was performed in rats. […] This study assessed clinical observations/mortality, body weights, clinical pathology, toxicokinetics, and histopathology of select tissues. The tissues studied were: Adrenal gland, Bone marrow (femur), Brain, Small Intestine (including GALT), Heart, Large Intestine, Kidney, Stomach, Liver, Pancreas, Spleen, Testis, and Thymus. Doses were selected based on repeat-dose tolerability study, PK and plasma protein binding, and cellular IC50s for PI3K isoforms.
# [4] = test system: RANKL driven differentiation of osteoclasts; assay: Osteoclast differentiation assay (TRAP) from bone marrow macrophages; type: cell-based, mouse; conditions: 6 days
# Description: Long bones from young C57B6 mice were harvested and bone marrow was extruded by gentle lavage of the bone marrow cavities with a 28 gage needle. The cells were screened, and red blood cells were removed using red blood cell lysis buffer (Sigma). Bone marrow cells were differentiated to macrophages using 20 ng/ml mouse MCSF (RnD systems) for 3 days (RPMI and 20% FCS). The cell were washed with PBS, and lifted with Accutase for 10 minutes.
# The bone marrow macrophage cells were plated at 150,000 cells per well in a 96 well plate in a MEM 10% FCS. […] Then 25 ng/ml mouse MCSF with or without mouse RANKL (100 ng/ml, RnD systems) was added for 6 days. Media changes (including drugs) were done at day 3 and day 5. The cells were then fixed and stained with the tartrate resistant acid phosphatase (TRAP) assay kit from Sigma according to the manufactures instructions. TRAP positive cells (osteoclasts and cells undergoing an osteoclastic differentiation) in a transect of the triplicate wells (at 20× […]) were manually counted by going through the widest part of each well.
# [5] = Pharmacokinetics of Compound BB, single and repeat oral dose in CB6F1 female mice; type: in vivo, mouse; conditions: CB6F1 female mice, 2, 7.5, 15 mg/kg PO
# Description: Animals were weighed daily prior to dosing. […] On subsequent dosing days, the animals' condition was noted prior to dosing; the animals were observed within 4 hours of dosing, and at the end of the day.
# Samples were collected at pre-dose 0.25, 0.5, 1, 2, 4, 6 and 24 h following the first dose on day 1 and pre-dose (trough), 0.25, 0.5, 1, 2, 4, 6 and 24 h following the final dose on day 3. Animals received a single oral dose daily for 3 consecutive days. Blood was collected by retro-orbital bleeding for all time points on day 1. All other blood sampling was collected by a cardiac puncture. Blood was collected into K2EDTA tubes and placed on wet ice. Within 15 min of collection, the sample was centrifuged at 10,000 rpm at 4° C. for 10 min in a bench top centrifuge and the plasma transferred to a new microcentrifuge tube.
# [6] = Oral pharmacokinetics of Compound BB in monkey; type: in vivo; conditions: 5 mg/kg oral
# Text: (§1) Compound BB's oral exposure is high in rat, dog and monkey. Good oral bioavailability and low clearance in rodent and non-rodent animal species results in high oral exposure.
# Lewis Lung Carcinoma = Lewis Lung Carcinoma (LLC) tumor brei model; type: in vivo, mouse
# Description: LLC Lewis Lung carcinoma model: LLC cells are derived from a spontaneous lung tumor from a C57BL/6 mouse and can be studied as a s.c. tumor when injected in the flank, or as an orthotopic tumor if injected i.v., following which it localizes to the lung.
# Compound BB was tested in the Lewis Lung Carcinoma model, which is known in the art and briefly described hereinabove.
# LLC tumor brei model was prepared and injected subcutaneously into a mouse in the hind flank region. The tumor brei was prepared as follows. LL2-Luc tumor cells were grown in culture in DMEM+10% FBS. Cells were implanted @ 1×10^6 cells/100 uL SC in the flank of C57 Albino mice (male) When tumors reached 1000 mm3, tumors were harvested. Only the white, living tissue was harvested. Any material containing visable blood or necrotic area was isolated away from the tumor tissue. Tumor tissue was placed in a Dounce tissue homoginized with 5 mLs of warm DMEM (no FBS). About 1-2 grams of tumor tissue was collected, homogenized, pooled into 50 mL falcon tube, and cells were counted. Cells were spinned @ 12,000 RPM, and FBS was pooled off. Cells were resuspended to equal 1×10^7 cells/mL with sterile PBS. 100 uL of cells/mouse SC at the hind flank region were implanted. This process was repeated one more time before conducting brei tumor efficacy study.
# Flow cytometry was performed to obtain a more extensive cellular subset analysis. In particular, the study examined T cell vs. Myeloid cells, Myeloid cell subsets, Regulatory vs. effector T cells, and Tumor markers vs. WBC (e.g., PD-L1 expression on tumor).
# Different populations of tumor-associated myeloid cells can be identified by flow cytometry, e.g., monocytic immature myeloid cells (iMC), Granulocytic iMCs/Neutrophils, Tumor Associated Macrophages (TAMs), and Granulocytic MDSCs. The different populations, and panels for detecting MDSCs, are described in Cancer Discovery 2011; 1:54-67. Tumors may vary in their myeloid cell composition.
# [7] = test system: Myeloid Derived Suppressor Cell; assay: Myeloid Derived Suppressor Cell differentiation assay; type: cell-based
# [8] = Oral pharmacokinetics of Compound BB in dog; type: in vivo; conditions: 5 mg/kg oral
# Text: as §1
compound,measurement,setting,value
C[C@H](NC(=O)c1c(N)nn2cccnc12)c1cc2cccc(C#Cc3cnn(C)c3)c2c(=O)n1-c1ccccc1 [Compound BB],Stability in simulated gastric fluid,[1],> 4 h
same,Clearance and half-life in vivo,[2],low clearance and a long half-life in vivo
same,"Histopathology, gross changes",[3]; 10 days,no significant gross changes were observed
same,Decrease in body weights compared to vehicle,"[3]; high dose (50 mg/kg/day), 10 days",5-8%
same,"Histopathology, thymus","[3]; males at ≥7.5 mg/kg/day, females at 50 mg/kg/day",minimal/mild lymphoid depletion
same,Mortality and clinical signs,"[3]; oral 10 days, any dose level",No mortality or clinical signs were observed
same,Tolerability,"[3]; oral, 1, 7.5, 20, 50 mg/kg/day",well-tolerated for 10 days
same,"Histopathology, spleen",[3]; primarily at doses ≥20 mg/kg/day,minimal/mild lymphoid depletion of the marginal zone and periarteriolar lymphoid sheaths (PALS)
same,Clinical pathology,[3]; primarily in 20 and 50 mg/kg/day groups,"minimal changes in neutrophils, lymphocytes, and fibrinogen"
same,"RANKL driven differentiation of osteoclasts (TRAP positive cells, FIG. 17)",[4],prevents RANKL driven differentiation of osteoclasts
same,Stability in serum (24-hour time course of unbound plasma concentration),[5],good stability in serum
same,"Oral exposure (plasma concentrations within 24 hours, FIG. 43)",[6],high
same,"Number of infiltrating TAMs (flow cytometry, FIG. 38A)",Lewis Lung Carcinoma,the number of infiltrating TAMs was decreased
same,Tumor growth (FIGS. 25A and 25B),Lewis Lung Carcinoma; single agent,demonstrated single agent activity
same,"CD206 staining (M2 macrophages, FIG. 39)",Lewis Lung Carcinoma; vs control,CD206 staining was reduced
same,ARG1,[7],suppresses
same,VEGF,[7],suppresses
same,"Oral exposure (plasma concentrations within 24 hours, FIG. 43)",[8],high
